Results reported in patent US7030096B1, “Method of enhancing relaxation of penile smooth muscle by introduction of DNA encoding maxi-K potassium channel protein” (Albert Einstein College of Medicine of Yeshiva University, priority 1997, dated 2006).
Read-outs that look alike come from different tables or passages of the source. Where no end group is shown, it is not given here.

Experiments:
[1] = test system: monkeys and humans; settings: cited from earlier work
[2] = test system: precontracted corporal tissue strips; settings: from both animals and humans; cited from earlier work
[3] = molecular target: KCa channel (Homo sapiens, UniProt Q12791); settings: Table 4; cited from earlier work
[4] = test system: corporal smooth muscle; settings: cited from earlier work
[5] = test system: L-type Ca^2+ channel; settings: cited from earlier work
[6] = molecular target: T1, maxi-K channel (Homo sapiens, UniProt Q12791); assay type: cell-based
[7] = test system: isolated human corporal tissue strips; settings: cited from earlier work
[8] = test system: isolated human corporal tissue strips; assay type: cell-based
[9] = test system: cultured human corporal smooth muscle cells; settings: preincubation with 500 nM PGE1, cited from earlier work
[10] = test system: cultured human corporal smooth muscle cells; assay: Resting and ET-1-induced intracellular calcium in fura-2-loaded cultured cells; assay type: cell-based; settings: transfection with hSlo cDNA or preincubation with PGE1 (500 nM)
Experimental: Urol., 155:[…], 1996). This decrease is indistinguishable from the decrease seen in the absence of extracellular Ca^2+ (in 2 mM EGTA), or when cells are preincubated with either nifedipine (Zhao and Christ, J. Urol., 154:1571-79, 1995) or verapamil, both of which are blockers of the L-type voltage-dependent calcium channel. [table]

[11] = molecular target: T1, maxi-K channel; settings: all four recording modes; cited from earlier work
[12] = test system: KATP channel; settings: Table 4; cited from earlier work

Sequence of KCa channel (Q12791 whole entry): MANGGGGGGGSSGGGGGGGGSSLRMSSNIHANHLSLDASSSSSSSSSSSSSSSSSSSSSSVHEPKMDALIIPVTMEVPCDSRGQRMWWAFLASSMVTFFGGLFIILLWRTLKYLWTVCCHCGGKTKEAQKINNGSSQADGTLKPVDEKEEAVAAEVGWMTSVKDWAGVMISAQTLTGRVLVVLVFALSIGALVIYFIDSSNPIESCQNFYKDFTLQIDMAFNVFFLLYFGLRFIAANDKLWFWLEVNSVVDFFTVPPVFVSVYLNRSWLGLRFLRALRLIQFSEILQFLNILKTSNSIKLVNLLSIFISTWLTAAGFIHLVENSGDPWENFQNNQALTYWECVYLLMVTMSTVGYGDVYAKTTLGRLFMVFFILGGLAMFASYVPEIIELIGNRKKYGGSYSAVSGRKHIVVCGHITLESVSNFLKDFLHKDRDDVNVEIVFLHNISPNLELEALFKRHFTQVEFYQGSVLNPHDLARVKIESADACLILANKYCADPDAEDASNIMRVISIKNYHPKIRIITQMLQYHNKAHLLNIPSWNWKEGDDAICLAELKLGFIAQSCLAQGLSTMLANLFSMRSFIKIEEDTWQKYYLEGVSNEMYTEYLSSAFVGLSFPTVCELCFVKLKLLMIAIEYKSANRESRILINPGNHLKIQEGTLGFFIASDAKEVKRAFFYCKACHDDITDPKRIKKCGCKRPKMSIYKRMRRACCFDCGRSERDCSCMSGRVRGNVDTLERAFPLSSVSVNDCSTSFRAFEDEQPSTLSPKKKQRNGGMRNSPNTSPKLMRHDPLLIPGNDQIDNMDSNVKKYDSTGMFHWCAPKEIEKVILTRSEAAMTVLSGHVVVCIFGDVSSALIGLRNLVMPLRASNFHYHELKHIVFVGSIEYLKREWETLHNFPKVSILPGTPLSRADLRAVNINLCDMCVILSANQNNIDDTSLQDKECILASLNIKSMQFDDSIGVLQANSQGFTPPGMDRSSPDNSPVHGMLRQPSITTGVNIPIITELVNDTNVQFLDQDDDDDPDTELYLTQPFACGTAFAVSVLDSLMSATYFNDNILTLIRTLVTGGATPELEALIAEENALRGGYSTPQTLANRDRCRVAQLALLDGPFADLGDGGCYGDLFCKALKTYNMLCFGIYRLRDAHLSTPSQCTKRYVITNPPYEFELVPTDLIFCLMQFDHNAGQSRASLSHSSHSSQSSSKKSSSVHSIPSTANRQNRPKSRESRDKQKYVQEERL
T1 sequence (Q12791 whole entry): as above

**Q.** For `O=C(NCCO[N+](=O)[O-])c1cccnc1` [nicorandil], which “effect when injected intracavernosally” value [1] is on record?
**A.** Its value is “elicit an erection”.

**Q.** What about the “effect on precontracted corporal tissue strips” value [2] of the same molecule?
**A.** The value was “relax”.

**Q.** For `CNC[C@H](O)c1cccc(O)c1` [PE, phenylephrine], which “Channel Type Affected: KCa” value [3] is on record?
**A.** Its value is “KCa increases”.

**Q.** What about the “Effect on Smooth Muscle Tone” value ([4]; Table 4) of the same molecule?
**A.** Its value is “modulates increase”.

**Q.** Which “effect when injected intracavernosally” value [1] does the source give for `CC1(C)Oc2ccc(C#N)cc2C(N2CCCC2=O)C1O` (stereo not shown) [cromakalim] here?
**A.** The value was “elicit an erection”.

**Q.** And the “effect on precontracted corporal tissue strips” value [2]?
**A.** The value was “relax”.

**Q.** Which “Channel Type Affected: L-type Ca^2+” value ([5]; Table 4) does the source give for “endothelin-1 (CSCSSLMDKECVYFCHLDIIW; ends and bridges not checked; cysteine pairing not given here; UniProt P05305 53-73, looked up) [ET-1]” here?
**A.** The value was “increases”.

**Q.** And the “Effect on Smooth Muscle Tone” value ([4]; Table 4)?
**A.** Its value is “increased tone”.

**Q.** Which Channel activity increased [6] does the source give for `O=[N+]([O-])OCC(CO[N+](=O)[O-])O[N+](=O)[O-]` [NTG, nitroglycerine] here?
**A.** Its Channel activity increased is “YES”.

**Q.** What about the “maxi-K channel activity (attached patch recording mode)” value [6] of the same molecule?
**A.** The value was “increase in maxi-K channel activity”.

**Q.** And the “expected percent relaxation response elicited by 100 nM nitroglycerine” value [7]?
**A.** The value was 50.1%.

**Q.** And the “Channel Type Affected: L-type Ca^2+” value [5]?
**A.** The value was “decreases”.

**Q.** What about the “percent relaxation response elicited by 100 nM nitroglycerine” value [8] of the same molecule?
**A.** Its value is 20.3%±3.2.

**Q.** What about the “Effect on Smooth Muscle Tone” value [4] of the same molecule?
**A.** Its value is “decreased tone”.

**Q.** What does the source list for `CCCCC[C@H](O)/C=C/[C@H]1[C@H](O)CC(=O)[C@@H]1CCCCCCC(=O)O` [PGE1, prostaglandin E1]?
**A.** decrease in peak amplitude of the ET-1-induced (50 nM) calcium transient [9]: ≈ 40%; peak amplitude of the ET-1-induced (50 nM) calcium transient above baseline ([9]; control value 161.5±19.5 nM): 102.6 ± 9.5 nM; Channel activity increased ([6]; 100 μM NTG or 30 nM–30 μM PGE1): YES; ET-1-induced calcium response decreased [10]: YES; Channel Type Affected: KCa [3]: KCa increases; activity of the maxi-K channel [11]: concentration-dependent increase; Effect on Smooth Muscle Tone ([4]; Table 4): decreased tone

**Q.** For `CC1(C)Oc2ccc(C#N)cc2[C@@H](N2CCCC2=O)[C@@H]1O` [lemakalim], which “effect when injected intracavernosally” value [1] is on record?
**A.** The value was “elicit an erection”.

**Q.** What about the “effect on precontracted corporal tissue strips” value [2] of the same molecule?
**A.** Its value is “relax”.

**Q.** With `CC[N+](CC)(CC)CC` [TEA, tetraethylammonium] as the molecule, how does the “Channel Type Affected: KCa” value [3] read?
**A.** Its value is “KCa decreases”.

**Q.** What about the PE-induced contraction increased [8] of the same molecule?
**A.** Its PE-induced contraction increased is “YES”.

**Q.** What about the Relaxation response decreased [8] of the same molecule?
**A.** Its Relaxation response decreased is “YES”.

**Q.** What about the “Resting corporal smooth muscle tone increased” value [8] of the same molecule?
**A.** The value was “YES”.

**Q.** What about the “effect on NTG-induced relaxation response (100 nM)” value [8] of the same molecule?
**A.** Its value is “significant attenuation”.

**Q.** What about the “Effect on Smooth Muscle Tone” value [4] of the same molecule?
**A.** The value was “increased tone”.

**Q.** With `CC(N/C(=N\C#N)Nc1ccncc1)C(C)(C)C` (stereo not shown) [pinacidil] as the molecule, how does the “effect when injected intracavernosally” value [1] read?
**A.** The value was “elicit an erection”.

**Q.** What about the “Channel Type Affected: KATP” value [12] of the same molecule?
**A.** The value was “KATP increases”.

**Q.** What about the “Effect on Smooth Muscle Tone” value ([4]; Table 4) of the same molecule?
**A.** Its value is “decreased tone”.

**Q.** What about the “effect on precontracted corporal tissue strips” value [2] of the same molecule?
**A.** Its value is “relax”.

**Q.** Which results are given for `[Cl-].[K+]` [KCl]?
**A.** Channel Type Affected: KATP [12]: KATP increases; Effect on Smooth Muscle Tone ([4]; Table 4): modulates increase

**Q.** With `COc1ccc(Cl)cc1C(=O)NCCc1ccc(S(=O)(=O)NC(=O)NC2CCCCC2)cc1` [Glibenclamide, glibenclamide] as the molecule, how does the “Channel Type Affected: KATP” value [12] read?
**A.** The value was “KATP decreases”.

**Q.** And the “Effect on Smooth Muscle Tone” value ([4]; Table 4)?
**A.** The value was “increased tone”.
